In ChEMBL document CHEMBL2346578, “Substituted 1,6-diphenylnaphthalenes as FtsZ-targeting antibacterial agents” (2013):
Converted amounts (≈) assume the structure as drawn. The source made the active and inactive calls. No cut-off for these calls is given here.

Legend:
Enterococcus faecalis [1] = assay: Antibacterial activity against vancomycin-resistant Enterococcus faecalis ATCC 51575 assessed as growth inhibition by CLSI broth microdilution method; assay type: functional
Enterococcus faecalis [2] = assay: microbe, parasite or virus in culture; assay type: functional; conditions: ATCC 19433
Description: Antibacterial activity against vancomycin-sensitive Enterococcus faecalis ATCC 19433 assessed as growth inhibition by CLSI broth microdilution method

Staphylococcus aureus [3] = assay: Antibacterial activity against methicillin-sensitive Staphylococcus aureus 8325-4 assessed as growth inhibition by CLSI broth microdilution method; assay type: functional
Staphylococcus aureus [4] = assay: microbe, parasite or virus in culture; assay type: functional; conditions: ATCC 33591
Description: Antibacterial activity against methicillin-resistant Staphylococcus aureus ATCC 33591 assessed as growth inhibition by CLSI broth microdilution method

[5] = biological target: Tubulin beta chain (Sus scrofa) (UniProt P02554); assay: Inhibition of porcine MAP-rich beta-tubulin polymerization at 10 ug/mL by light scattering assay
[6] = biological target: T1, Cell division protein FtsZ (Staphylococcus aureus) (UniProt P0A031); assay: Stimulation of Staphylococcus aureus ATCC 33591 FtsZ self-polymerization expressed in Escherichia coli BL21 (DE3) at 40 ug/mL by light scattering assay
T1 sequence (whole entry): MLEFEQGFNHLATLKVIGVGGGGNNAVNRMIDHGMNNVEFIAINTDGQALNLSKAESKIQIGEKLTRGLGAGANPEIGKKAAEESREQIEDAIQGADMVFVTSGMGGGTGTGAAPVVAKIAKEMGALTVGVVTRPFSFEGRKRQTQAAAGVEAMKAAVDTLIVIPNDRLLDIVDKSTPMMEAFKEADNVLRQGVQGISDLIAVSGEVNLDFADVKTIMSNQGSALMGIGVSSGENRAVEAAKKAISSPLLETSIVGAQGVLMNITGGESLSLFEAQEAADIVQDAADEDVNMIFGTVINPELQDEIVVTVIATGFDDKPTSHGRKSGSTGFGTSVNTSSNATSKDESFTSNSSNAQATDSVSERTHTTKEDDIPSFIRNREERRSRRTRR

[7] = biological target: Tubulin beta chain (Sus scrofa) (UniProt P02554); assay: Stimulation of porcine MAP-rich beta-tubulin polymerization at 40 ug/mL by light scattering assay

Sequence of Tubulin beta chain (Sus scrofa) (P02554 whole entry): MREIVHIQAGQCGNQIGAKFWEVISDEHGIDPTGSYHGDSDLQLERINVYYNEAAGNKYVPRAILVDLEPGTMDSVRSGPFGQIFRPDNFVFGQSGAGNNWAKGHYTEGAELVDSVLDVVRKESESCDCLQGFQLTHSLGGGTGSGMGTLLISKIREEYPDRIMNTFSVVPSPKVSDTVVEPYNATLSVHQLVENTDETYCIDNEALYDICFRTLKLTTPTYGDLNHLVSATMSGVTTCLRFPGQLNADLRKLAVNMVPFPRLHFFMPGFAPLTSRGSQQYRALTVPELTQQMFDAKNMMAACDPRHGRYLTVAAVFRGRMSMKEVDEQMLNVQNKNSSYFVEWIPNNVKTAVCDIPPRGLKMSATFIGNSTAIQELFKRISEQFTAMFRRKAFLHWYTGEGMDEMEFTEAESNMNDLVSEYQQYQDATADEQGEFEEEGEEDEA

| inhibition [5] | SMILES | MIC90 (Enterococcus faecalis [1]) | MIC90 (Enterococcus faecalis [2]) | MIC90 (Staphylococcus aureus [3]) | MIC90 (Staphylococcus aureus [4]) | Activity [6] | Activity [7] |
| --- | --- | --- | --- | --- | --- | --- | --- |
| – | CC(C)(C)c1ccc(-c2cccc3cc(-c4ccc([N+](C)(C)C)cc4)ccc23)cc1.[I-] | 4 µg/mL | 4 µg/mL | 1 µg/mL | 2 µg/mL | – | – |
| – | C[n+]1cc2c3c(ccc2c2ccc4cc5c(cc4c21)OCO5)OCO3 [SANGUINARIUM] | 16 µg/mL | 8 µg/mL | 2 µg/mL | 2 µg/mL | – | – |
| – | CN(C)[C@@H]1C(O)=C(C(N)=O)C(=O)[C@@]2(O)C(O)=C3C(=O)c4c(O)cccc4[C@@](C)(O)[C@H]3C[C@@H]12 [TETRACYCLINE] | > 64 µg/mL | 0.5 µg/mL (≈ 1.13 µM) | 0.063 µg/mL (≈ 0.142 µM) | 64 µg/mL (≈ 144 µM) | – | – |
| – | COC(=O)c1ccc(-c2ccc3c(-c4ccc(C(C)(C)C)cc4)cccc3c2)c(CN(C)C)c1 | > 64 µg/mL | > 64 µg/mL | > 64 µg/mL | > 64 µg/mL | – | – |
| – | CC(C)(C)c1ccc(-c2cccc3cc(-c4ccccc4N)ccc23)cc1 | > 64 µg/mL | > 64 µg/mL | > 64 µg/mL | > 64 µg/mL | – | – |
| – | CNCc1cc(C(=O)OC)ccc1-c1ccc2c(-c3ccc(C(C)(C)C)cc3)cccc2c1 | 4 µg/mL (≈ 9.14 µM) | 8 µg/mL (≈ 18.3 µM) | 4 µg/mL (≈ 9.14 µM) | 4 µg/mL (≈ 9.14 µM) | – | – |
| Active | COC(=O)Nc1nc2cc(C(=O)c3cccs3)ccc2[nH]1 | – | – | – | – | – | – |
| – | C[N+](C)(C)c1ccc(-c2ccc3c(-c4cccc(-c5ccccc5)c4)cccc3c2)cc1.[I-] | 2 µg/mL | 2 µg/mL | 1 µg/mL | 1 µg/mL | – | – |
| – | C[N+](C)(C)c1cccc(-c2ccc3c(-c4cccc(-c5ccccc5)c4)cccc3c2)c1.[I-] | 2 µg/mL | 2 µg/mL | 1 µg/mL | 1 µg/mL | – | – |
| – | CNCc1ccccc1-c1ccc2c(-c3ccc(C(C)(C)C)cc3)cccc2c1 | 2 µg/mL (≈ 5.27 µM) | 2 µg/mL (≈ 5.27 µM) | 2 µg/mL (≈ 5.27 µM) | 2 µg/mL (≈ 5.27 µM) | – | – |
| – | CN(C)Cc1cccc(-c2ccc3c(-c4cccc(-c5ccccc5)c4)cccc3c2)c1 | 16 µg/mL (≈ 38.7 µM) | 16 µg/mL (≈ 38.7 µM) | 4 µg/mL (≈ 9.67 µM) | 8 µg/mL (≈ 19.3 µM) | – | – |
| – | CC(C)(C)c1ccc(-c2cccc3cc(-c4ccccc4C[N+](C)(C)C)ccc23)cc1.[I-] | 4 µg/mL | 4 µg/mL | 0.5 µg/mL | 0.5 µg/mL | Active | inactive |
| – | CC(C)(C)c1ccc(-c2cccc3cc(-c4ccccc4CCN)ccc23)cc1 | 4 µg/mL (≈ 10.5 µM) | 4 µg/mL (≈ 10.5 µM) | 2 µg/mL (≈ 5.27 µM) | 2 µg/mL (≈ 5.27 µM) | Active | – |
| – | Cc1onc(-c2ccccc2)c1C(=O)N[C@@H]1C(=O)N2[C@@H]1SC(C)(C)[C@@H]2C(=O)O [OXACILLIN] | > 64 µg/mL | 8 µg/mL (≈ 19.9 µM) | 0.063 µg/mL (≈ 0.157 µM) | > 64 µg/mL | – | – |
| – | CC(C)(C)c1ccc(-c2cccc3cc(-c4cccc([N+](C)(C)C)c4)ccc23)cc1.[I-] | 2 µg/mL | 2 µg/mL | 0.5 µg/mL | 1 µg/mL | – | – |
| – | CN(C)Cc1ccccc1-c1ccc2c(-c3ccc(C(C)(C)C)cc3)cccc2c1 | > 64 µg/mL | > 64 µg/mL | 32 µg/mL (≈ 81.3 µM) | > 64 µg/mL | – | – |
| – | C[N+](C)(C)Cc1cccc(-c2ccc3c(-c4cccc(-c5ccccc5)c4)cccc3c2)c1.[I-] | 4 µg/mL | 4 µg/mL | 0.5 µg/mL | 1 µg/mL | – | – |
